What all share (assay type): cell-based, Drosophila
Experiment [1] relates to C1.8 cells. The experiment can be described thus: Primary small molecule screen in ZO Fortified, CyQUANT Direct Proliferation Assay. The conditions noted are these: C1.8 cells in ZO Fortified; for compound z-score (zC1.8): 4 days, z vs negative control, hit cutoffs z=±3; for hit call, primary screen: hit cutoffs ±3. As to the method: (§1) Five stock plates of randomized compounds (410 total) were prepared at 75 μM in water (1:133 dilution) using an automated liquid handler (Eppendorf EPMotion 5075). Strategically located negative control wells were incorporated into the stock plates by dosing wells with DMSO (1:133, carrier only control). Randomly placed positive control wells were also included by dosing wells with DMSO (1:133); for flexibility, positive controls were prepared in the working stock. Working stocks plates at 2 and 20 μM (2×) were then prepared in ZO Fortified by diluting the 5 stock plates 1:3.75 (high concentration working stock) and then serially diluting 1:10 (low concentration working stock). Positive control wells were prepared by replacing 10% of the media with 100% fly extract (FEX).
(§2) Cells were rinsed three times in PBS and seeded at a concentration of 50,000 cells/well (50 μL) in ZO Fortified (primary screen) or ZO Fortified supplemented with 2 μM spermidine (secondary screen) in 10 plates. Working stocks, 50 μL, were then immediately added on top of the cells (day 0). Plates were incubated at 25° C. for four days. On the fourth day, plates were imaged at 10× magnification on a confocal microscope using automated screen acquisition (Andor Spinning Disc Confocal Microscope, Metamorph Software). CyQUANT® Direct Proliferation Assay (Invitrogen) was then added (0.25× final conc.) and fluorescent intensity was measured with a plate reader (Biotek Synergy H2).
(§3) Five stock plates of randomized compounds in singlet (410 total) were prepared at 75 μM in water (1:133 dilution) using an automated liquid handler (Eppendorf epMotion® 5075). Ten strategically located negative controls were incorporated into each stock plate by dosing wells with DMSO (1:133, carrier only control) (Zhang, Optimal High-Throughput Screening: Practical Experimental Design and Data Analysis for Genome Scale RNAi Research, 2011). Four randomly placed positive control wells were also included on each plate by dosing wells with DMSO (1:133) for consistency, but for flexibility positive control treatments were prepared in the working stock. Working stocks at 2 and 20 μM (2×) were then prepared in ZO Fortified by diluting the 5 stock plates 1:3.75 (high concentration working stock) and then serially diluting 1:10 (low concentration working stock). Positive control wells were prepared by replacing 10% of the media with 100% fly extract (FEX) (see Zartman et al., Dev. Camb. Engl., 2013, 140, 667-674).
(§4) Cells were rinsed three times in phosphate buffered saline (PBS) and seeded at 50,000 cells/well (50 μL) in ZO Fortified. Working stocks, 50 μL, were then immediately added on top of the cells (day 0). Plates were incubated at 25° C. for four days, and then imaged at 10× magnification on a Nikon microscope using automated screen acquisition in MetaMorph® software. Plates were then treated with CyQUANT® (0.25× final concentration) for one hour at 25° C., and fluorescent intensity was measured with a plate reader (Biotek Synergy H2).
(§5) Strictly standardized mean difference (SSMD) scores for classifying assay quality were calculated with respect to negative controls on a plate-wise basis, with the average assay quality being excellent for both cell lines and screened concentrations. […] As a hit selection metric we used z-scores, which measure the number of standard deviations from the negative control that a small molecule treatment causes. Z-scores were calculated on a plate-wise basis, and hit cutoffs of z=±3 were selected. Visual inspection of images was used to remove false-positive hits, which generally occurred due to autofluorescence of a few of the compounds.

Experiment [2] deals with S2 cells. The description is as above. The conditions noted are these: for compound z-score (zS2): 4 days, z vs negative control, hit cutoffs z=±3; for hit call, primary screen: hit cutoffs ±3. Here is the method:
as §1, §2, §3, §4, §5

For experiment [3], the system named is C1.8 cells. The experiment can be described thus: Secondary screen in ZB Media (ZO Fortified with spermidine), CyQUANT. The conditions noted are these: C1.8 cells in ZB Media, hit cutoffs ±3. As to the method: as §1, §2
(§6) Representative positive and negative control wells can be found in FIG. 7. Compound z-scores were calculated similarly, hit cutoffs of ±3 were established visual inspection of confocal images was used to remove false-positive hits. This analysis yielded 8 C1.8 and 27 S2 positive hit compounds and 12 C1.8 and 27 S2 negative hit compounds (FIGS. 8-10).

In experiment [4] the test system is S2 cells. The experiment is described as above. The conditions noted are these: hit cutoffs ±3. Here is the method:
as §1, §2, §6

The test system of experiment [5] is polyamine-depleted C1.8 cells. The experiment can be described thus: Polyamine-depleted spermidine dose-response, manual cell count. The note with it: ZO Fortified. As to the method:
C1.8 cells were rinsed three times in PBS and seeded in ZO Fortified at 1×10^6 cell/mL. After nine days of culture in ZO Fortified, cells were harvested and seeded in tissue culture flasks in ZO Fortified supplemented with 0, 0.1, 1, or 10 μM spermidine (in triplicate). After 6 days of culture, cells were manually counted.

The next experiment has as its system ERK in C1.8 cells. The experiment can be described thus: Western blot of ERK and dpERK (MAPK activity). As to the method:
(§7) For western blots, C1.8 and S2 cells were rinsed three times in PBS and seeded in tissue culture flasks at a concentration of 1,000,000 cell/mL in the various media. Cells were cultured until positive control samples (complete media) reached ˜90% confluency, at which point all cell samples were lysed for 30 minutes on ice in a buffer containing 50 mM Tris, 150 mM NaCl, 1% Nonidet P 40 substitute (Sigma 74385), and 1% Sigma protease inhibitor cocktail (P8340). Nucleic acid and cell debris were cleared by centrifugation at 12,000 rpm for 20 minutes at 4° C. Because polyamines are known to play roles in initiation of transcription and translation, “housekeeping” genes routinely used as loading controls for western blots are likely inappropriate for this application. Thus samples were normalized by total loaded protein. Sample protein concentrations were determined three independent times per sample using Coomassie Plus (Bradford) Assay (Thermo Scientific 23238). ANOVA comparison of loading concentrations across all samples found no significant variation between samples (p>0.34). Proteins were resolved by SDS-PAGE in reducing conditions, electroblotted to PVDF membranes (Hybone 10600087), and probed with either 1:1000 anti-rabbit p44/p42 MAPK (Erk1/2) (Cell Signaling) or 1:1500 anti-mouse MAPK (dpERK1/2) (Sigma). Blots were developed using WesternBreeze chromogenic western blot immunodetection kit (Invitrogen) and quantification was done in Fiji (Schindelin et al., Nat. Methods, 2012, 9, 676-682).
(In general: In western blotting, separated proteins are transferred to a membrane and probed.)

A further experiment deals with ERK in S2 cells. The experiment can be described thus: Western blot of ERK and dpERK (MAPK activity). The note with it: spermidine supplementation, p>0.45. As to the method: as §7
The subject of experiment [6] is C1.8 cells. The experiment can be described thus: Long-term culture in chemically defined medium. The conditions noted are these: passaged 1:2 retaining half of spent media. Here is the method:
(§8) Cells were rinsed 3× in PBS and then seeded at high confluency in ZO Fortified and ZB Media (ZO Fortified supplemented with 1 μM spermidine). Upon reaching confluency, cells were passaged 1:2 retaining half of the spent media.
(§9) C1.8, S2, and Kc167 (Kc) cells were expanded in optimized serum-containing media, C1.8, S2, and Kc167 media, respectively. C1.8 media contains M3 media (Sigma-Aldrich) supplemented with FBS (2%), insulin (5 μg/m), and fly extract (2.5%). S2 media is based on Schneider's media (Gibco® Life Technologies) supplemented with FBS (10%). Kc media containing M3 media supplemented with yeast extract (10 mg/mL), bactopeptone (25 mg/mL), and 5% FBS. All cell lines were obtained and cultured according to instructions from the Drosophila Genomics Resource Center (DGRC). Fly extract was prepared from adult yw flies as described by the DGRC. For culture in chemically defined media, cells were rinsed three times in PBS to remove residual serum and seeded at around 70% confluency in ZO Fortified or ZB Media (ZO Fortified with 1 μM spermidine added at time of passage). Upon reaching confluency, cells were passaged 1:2 retaining half the spent media, similar to routine maintenance in complete media, with cells passaged in ZB Media receiving fresh doses of 1 μM spermidine.

Experiment [7] has as its system S2 cells. The experiment can be described thus: Long-term culture in chemically defined medium. The conditions noted are these: passaged 1:2 retaining half of spent media. Here is the method: as §8, §9

Consider `CC(C)(C)c1cc(/C=C(\C#N)C(N)=S)cc(C(C)(C)C)c1O` [AG-879], for which the “compound z-score (zC1.8)” value in the experiment on C1.8 cells [1] was −17.3. In addition, the “compound z-score (zS2)” value with S2 cells [2] is on record as −13.9.

With `CC(O)=C(C#N)C(=O)Nc1cc(Br)ccc1Br` [LFM-A13, α-cyano-β-hydroxy-β-methyl-N-(2,5-dibromophenyl)propen-amide], the “hit call, secondary screen” value in the experiment with C1.8 cells [3] and with S2 cells [4] was “positive hit” each time.

Regarding `CO[C@@H]1[C@H](N(C)C(=O)c2ccccc2)C[C@H]2O[C@]1(C)n1c3ccccc3c3c4c(c5c6ccccc6n2c5c31)C(=O)NC4` [PKC-412], the “compound z-score (zC1.8)” value with C1.8 cells [1] is recorded as −17.1. The “compound z-score (zS2)” value in the experiment with S2 cells [2] is given as −11.0.

Turning to `NCCCCN` [putrescine, butane-1,4-diamine], the “hit call, primary screen” value with C1.8 cells [1] and in the experiment with S2 cells [2] was “positive hits” each time.

Regarding `Cc1cc(/C=C/c2ccc3cc(N(C)C)ccc3[n+]2C)c(C)n1-c1ccccc1` [pyrvinium pamoate], in the experiment with C1.8 cells [1], the “compound z-score (zC1.8)” value is on record as −17.7. The “compound z-score (zS2)” value with S2 cells [2] is on record as −13.0.

Take `NCCCCNCCCN` [spermidine]: the “compound z-score (zC1.8)” value with C1.8 cells [1] turned out to be 10.0. For the same compound, the “hit call, primary screen” value in the experiment with C1.8 cells [1] and in the experiment with S2 cells [2] was “positive hit” each time. In addition, in the experiment on S2 cells [2], the “compound z-score (zS2)” value is 8.7. Besides, the “proliferation (cell number)” value in experiment [5] (1 μM spermidine compared to 0 or 0.1 μM, 6 days, p<5×10^−10) was “significant increase in proliferation”; in experiment [5] (higher dose (10 μM) spermidine, after 6 days), “failed to produce any statistically significant increases in cell number”. The “ERK double phosphorylation (dpERK)” value in the experiment with ERK in C1.8 cells (spermidine supplementation (ZB Media) vs ZO Fortified, p<0.012) is reported as “increase ERK double phosphorylation”. The “total ERK levels” value was “not significantly influenced” with ERK in C1.8 cells (spermidine supplementation, p>0.45) and “not significantly influenced” with ERK in S2 cells. Moreover, the “passages reached in long-term culture” value in the experiment with C1.8 cells [6] is given as ≥ 98 passages; in the experiment on C1.8 cells [6] (listed as Spermidine), > 15 passages; in the experiment with S2 cells [7], 4 passages.

For the compound `NCCCNCCCCNCCCN` [spermine], in the experiment on C1.8 cells [1], the “compound z-score (zC1.8)” value was 10.4 and the “hit call, primary screen” value is listed as “positive hit”. Further, in the experiment on S2 cells [2], the “compound z-score (zS2)” value was determined as 17.7 and the “hit call, primary screen” value is listed as “positive hit”.

Regarding `CN[C@@H]1C[C@H]2O[C@@](C)([C@@H]1OC)n1c3ccccc3c3c4c(c5c6ccccc6n2c5c31)C(=O)NC4` [staurosporine], the “compound z-score (zC1.8)” value with C1.8 cells [1] was −18.6. Further, the “compound z-score (zS2)” value in the experiment with S2 cells [2] is listed as −17.3.

With `CC1=C(O)C(=O)[C@@H]2O[C@@H]2C1=O` [terreic acid], the “hit call, secondary screen” value in the experiment on C1.8 cells [3] and with S2 cells [4] was “positive hit” each time.
